In paper PMC5955599, “The HTLV-1 gp21 fusion peptide inhibits antigen specific T-cell activation in-vitro and in mice” (PLoS Pathogens, 2018):
“Also recorded” adds a separate entry of the source.

Columns and labels:
[1] = tested on: mouse MOG35-55–antigen specific T cells; conditions: XTT, n = 4
Method: Aliquots of 10^4 cells were distributed onto a 96-well plate in the presence of 1.25–40μM of the relevant peptides for 16 or 72 hours. Following incubation, XTT reaction solution (benzene sulfonic acid hydrate and N-methyl dibenzopyrazine methyl sulfate, mixed in a proportion of 50:1), was added for 2 hours. Optical density was read at 450-nm wavelength. The percentage of toxicity was calculated relative to the control, 10^4 cells in medium with no peptide added.
Viability of cells was analyzed by an XTT cytotoxicity assay. MOG35-55–antigen specific T cells were incubated with peptides at concentrations ranging from 40μM to 2.5μM in serial dilutions (from black to light gray respectively). (A) Viability was analyzed following overnight (16 hours) incubation with peptides. (B) Viability was analyzed following 72 hour incubation with the peptide. The data is presented as mean percent viability. Error bars represent ± S.E.M. n = 4. (TIF) Click here for additional data file.

[2] = tested on: MOG35-55–antigen specific T-cells; test: In-vitro T-cell proliferative response (H3-thymidine incorporation); assay type: cell-based, mouse (C57Bl/6J); conditions: peptide at 10μM
[3] = tested on: MOG35-55–antigen specific T-cells; test: Cytokine secretion from activated antigen-specific T-cells (ELISA); assay type: cell-based, mouse (C57Bl/6J); conditions: peptide at 10μM, APC-activated T-cells, media 24 hours following activation, n = 12
Method: Fig 2 Modulation of Th1/Th2 gene expression and cytokine secretion from activated T-cells by the HTLV FP. MOG35-55–antigen specific T-cells were activated by irradiated MOG35-55 presenting APCs, in the presence of the HTLV FP at 10μM. (A) Total RNA was isolated 24 hours following activation and mRNA expression levels were determined by qRT-PCR. The values of each gene were normalized to Rpl13a as a housekeeping control. The HTLV FP reduces mRNA expression of Th1 specific genes (IFNG, LTA, and STAT4) and elevates mRNA expression of Th2 specific genes (IL4 and IL10). The data is presented as arbitrary units. n≥3. (B) Media was collected 24 hours following activation and secretion of cytokines was measured by ELISA assay. IFN-γ secretion is inhibited, IL4 secretion is elevated and TNFα is not affected by the HTLV FP. n = 12. One-way ANOVA was used for statistical analysis. *P<0.05; **P<0.01;***P<0.001.
Antigen-specific T-cells were plated onto round 96-well plates in medium containing RPMI-1640 supplemented with 2.5% fetal calf serum (FCS), 100 U/ml penicillin, 100 μg/ml streptomycin, 50μM β-mercaptoethanol, and 2mM L-glutamine. […] In addition, the relevant peptide was added. Each treatment was made with quadruplicate. Analysis of IFN-γ, IL-4 and TNFα secretion was performed by ELISA 24 hours after cell activation according to standard protocols from R&D systems.

[4] = Circular dichroism spectroscopy with CDNN secondary structure analysis; assay type: physicochemical; conditions: 25μM peptide in 5mM HEPES buffer with 1% LPC
Method: Fig 6 Detection of the immune modulatory region within the HTLV FP. (A) Sequences of shorter peptides derived from the full length HTLV FP. (B) MOG35-55–antigen specific T-cells were activated by APCs in the presence of HTLV FP derived peptides at 10μM and proliferative responses were assessed as described above. […] The data is presented as mean inhibition of proliferation. n = 12. (C) MOG35-55–antigen specific T cells were activated by either (i) irradiated MOG35-55 presenting APCs (black), (ii) antibodies against CD3 and CD28 (white), or (iii) PMA and Ionomycin (gray) in the presence of HTLV FP5-13 and HIV FP5-13 at 10μM. Proliferative responses were assessed as described above. The HTLV FP inhibits T-cell proliferation induced either through the TCR or downstream from the TCR with equal potencies. The data is presented as mean inhibition of proliferation. n = 12. […] CD spectra were measured at 25μM in 5mM HEPES buffer containing 1% lyso-phosphatidylcholine (LPC). […] (E) MOG35-55–antigen specific T-cells were activated by APCs in the presence of HTLV FP5-13 D/L enantiomers at 10μM and proliferative responses were assessed as described above. Both HTLV FP5-13 enantiomers inhibit T-cells proliferation with equal potencies. The data is presented as mean inhibition of proliferation. n = 12. One-way ANOVA was used for statistical analysis. *P<0.05;**P<0.01;***P<0.001.

[5] = CD 190–260 nm, CDNN, relative amount of structure out of 100%

AVPVAVWLVSALAMGAGVAGGITGSMSLASGKS [HTLV FP, gp21 fusion peptide of HTLV-1, MT-2 isolate]
toxicity to mouse T-cells, 72 hours ([1]; peptide 40μM to 2.5μM, 72 hour incubation): not toxic up to 4-fold higher than the concentrations used in this study
toxicity to mouse T-cells, 16 hours ([1]; peptides 40μM to 2.5μM, overnight (16 hours) incubation): not toxic up to 4-fold higher than the concentrations used in this study
inhibition of T-cell proliferation, activation by PMA and Ionomycin ([2]; 50ng/mL PMA with 1μM ionomycin, n = 12): inhibited T-cell proliferation induced at all three levels of activation with equal potency
inhibition of T-cell proliferation, activation by antibodies against CD3 and CD28 ([2]; CD3 and CD28 antibodies 2μg/ml, n = 12): inhibited T-cell proliferation induced at all three levels of activation with equal potency
inhibition of T-cell proliferation, activation by MOG35-55 presenting APCs ([2]; irradiated MOG35-55 presenting APCs, mean inhibition of proliferation, n = 12, 10 µM): inhibit T-cell proliferation with equal potency to that of HIV’s FP and significantly stronger than the BLV FP; also recorded: inhibited T-cell proliferation induced at all three levels of activation with equal potency; also recorded: inhibited both T-cell proliferation and IFN-γ secretion with higher potency than the HTLV Scr; also recorded: inhibit T-cell proliferation with higher potency than HTLV FP9-22 and HTLV FP14-22
IFN-γ secretion [3]: inhibited both T-cell proliferation and IFN-γ secretion with higher potency than the HTLV Scr
IL4 secretion [3]: elevated IL4 secretion
TNF-α secretion [3]: had no effect on TNF-α secretion
Antiparallel β-Sheet [4, 5]: 2.1%
Parallel β-Sheet [4, 5]: 3.3%
Random-coil [4, 5]: 13%
α-Helix [4, 5]: 68.6%
β-turn [4, 5]: 13%
secondary structure in a membrane mimetic environment ([4]; CD): exhibited an α-helical structure
